Experiments:
[1] = test system: MRSA (Methicillin resistant Staphylococcus aureus, ATCC33591); test: MIC determination in MRSA; assay type: cell-based
Protocol: Cation Adjusted Mueller Hinton Broth (Teknova #M5860); MRSA (Methicillin resistant Staphylococcus aureus, ATCC33591). Test compounds: all compounds were dissolved in PBS at 10 mg/mL and stored at −20° C.
The method used for determination of MIC's follows the procedure described by the Clinical Laboratory Standards Institute (CLSI). A standardized inoculum of MRSA was prepared per CLSI methods yielding a final cell concentration of 5×10 (5) CFU/mL. 10× compound dilutions were prepared by performing 2 fold serial dilutions in Cation Adjusted Mueller Hinton Broth. The starting and ending concentrations were 640 μg/mL and 1.25 μg/mL, respectively for final assay concentrations of 64 µg/mL and 0.125 μg/mL. 10 μL of the 10× compound dilutions were added to 90 μL of the MRSA cell suspension in microplate wells. Plates were incubated in a 35° C. incubator for approximately 20 hours.

[2] = test system: Clostridium difficile; test: Activity against Clostridium difficile; assay type: cell-based; conditions: relative to corresponding capreomycin IB phenyl urea analog
[3] = test system: mycobacteria; conditions: cited from earlier work
[4] = test system: other genera of bacteria (Gram-positive, Gram-negative); conditions: cited from earlier work

Molecule	activity against MRSA [1]	fold more active against Clostridium difficile than the corresponding capreomycin IB phenyl urea analogs [2] [fold]	activity against mycobacteria [3]	activity against other genera of bacteria [4]	efficacy against most Gram-positive bacteria (Staphylococcus) or Gram-negative bacteria (Escherichia coli) [4]
C[C@@H]1NC(=O)[C@@H](N)CNC(=O)[C@H](C2CCNC(=N)N2)NC(=O)/C(=C/NC(=O)Nc2cccc(-c3ccccc3)c2)NC(=O)[C@H](CN)NC1=O (some centres unmarked) [Compound 73]	active	4			
Capreomycin			potent activity	little activity	not efficacious
